From US5360613A, “Method of reducing blood levels of total cholesterol and low-density lipoprotein cholesterol” (Iowa State University Research Foundation, Inc., priority 1993, dated 1994)

Experiments:
[1] = Human dose-response study, body weight and body fat (Example V, Table E); type: in vivo, humans; conditions: for % Change After 8 Days, Body fat (%): linear effect NS; for % Change After 8 Days, Weight: linear effect p .32
Method: (§1) Higher dose levels than in Example IV of Ca-HMB were tested in humans. The objective was to obtain an indication of whether higher doses could be safely administered, and also whether higher doses might provide a greater reduction in total cholesterol and LDL cholesterol.
(§2) Normal humans were used in the study. Ca-HMB was administered in 250 mg capsules, and the subjects were instructed to take the capsules in 4 equal doses daily. No control of diet was attempted except they were instructed to eat as they normally would. On alternate days the subjects had blood drawn before the morning meal and before they took the morning HMB dose. Four subjects were studied for dose level of 05., 1, 2 and 4 grams per day.
(§3) Results from all samples of each subject were subjected to linear regression and the slope and intercept used to calculate the % change in concentration after 8 days on treatment. The percentage changes were then subjected to ANOVA-regression to determine if there was a linear effect of dosage on the parameter. The dose-response effect (p<) is listed in the linear effect column of Table E.

[2] = Hygroscopicity of HMB salts; type: physicochemical; conditions: compared with sodium or potassium salts
blood cholesterol = assay: Human dose-response study, blood cholesterol, triglycerides and glucose (Example V, Table E); type: in vivo, humans; conditions: for % Change After 8 Days, Cholesterol: linear effect p .21; for % Change After 8 Days, LDL: linear effect p .26; for % Change After 8 Days, Triglycerides: linear effect p .50; for % Change After 8 Days, HDL: linear effect p .85; for % Change After 8 Days, Glucose: linear effect p .99
Method: as §1, §2, §3

aorta = assay: Pig feeding study, aorta streaking (pre-atherosclerotic lesions) (Example III, Table C); type: in vivo, pigs; conditions: dietary .05%; 0 least severe to 3.2 most severe; control 1.87; HMB p .06, KIC ns
Method: (§4) A further large mammal study was carried out with pigs. Pigs comprise test animals which are more similar in certain respects to humans than ruminants.
(§5) Control: 60 g. of calcium
(§6) The pigs were housed in pens of two animals each and were allowed ad libitum access to food and water. Pigs were approximately 160 lbs. at the start of the experiment and were 240 lbs. at the end. All pigs were castrate males. At day 28 and day 43 of the experiment blood was collected from the anterior vena cava by venipuncture. Blood was collected into EDTA containing tubes, centrifuged and frozen until analyzed. At approximately 100 days of the experiment half of the animals (32) were slaughtered, and at 120 days the remaining 32 animals were slaughtered. At the time of slaughter the abdominal aorta was dissected out and external fat removed. The aorta was then split lengthwise and 1/2 fixed in formaldehyde for 48 hours. At this time aortas were removed, stretched over a 6 inch stick, washed in ethanol and stained with a lipid stain for 2 hours. After a 1 hour wash aortas were blotted and examined. All the aortas from a group were laid out on a white bench and arranged in order from least sever to most sever. The least sever had no dark red streaks on the aorta or around the small vertebral vessels leaving the aorta. The most sever lesions had multiple streaks in the middle of the aorta and dark red deposits in turbulent areas such as the branching of vessels from the aorta. The ordered aortas were then assigned a consecutive decimal number. The first (least severe) was assigned 0 and the most severe was assigned 3.2 Plasma cholesterol and triglycerides were measured by an enzyme-colorimetric assay (Sigma).
(§7) statistical analysis was accomplished by the general linear model procedure of the Statistical Analysis System (SAS). The model included the main effects of treatment and pen number. T-tests were conducted from the ANOVA standard error, to compare the HMB treatments to the control. […] It appeared that HMB can partially prevent the formation of pre-atherosclerotic lesions. No effect of KIC was noted relative to any parameter.

[3] = system: plasma cholesterol and triglycerides; assay: Pig feeding study, plasma cholesterol and triglycerides (Example III, Table C); type: in vivo, pigs
Method: as §4, §5, §6, §7

SMILES: CC(C)(O)CC(=O)O [Ca-HMB]
- % Change After 8 Days, Body fat (%) ([1]; 0.5 g daily): 5%
- % Change After 8 Days, Weight ([1]; 0.5 g daily): 1.7%
- % Change After 8 Days, Body fat (%) ([1]; 1.0 g daily): -18%
- % Change After 8 Days, Weight ([1]; 1.0 g daily): -.3%
- % Change After 8 Days, Body fat (%) ([1]; 2 g daily): -15%
- % Change After 8 Days, Weight ([1]; 2 g daily): .5%
- % Change After 8 Days, Body fat (%) ([1]; 4 g daily): -1%
- % Change After 8 Days, Weight ([1]; 4 g daily): .2%
- hygroscopicity [2]: less hydroscopic than the sodium or potassium salts
- % Change After 8 Days, Cholesterol (blood cholesterol; 0.5 g daily): 6%
- % Change After 8 Days, LDL (blood cholesterol; 0.5 g daily): 2%
- % Change After 8 Days, Triglycerides (blood cholesterol; 0.5 g daily): 26%
- % Change After 8 Days, HDL (blood cholesterol; 0.5 g daily): 0%
- % Change After 8 Days, Glucose (blood cholesterol; 0.5 g daily): -7%
- % Change After 8 Days, Cholesterol (blood cholesterol; 1.0 g daily): 1%
- % Change After 8 Days, LDL (blood cholesterol; 1.0 g daily): 0%
- % Change After 8 Days, Triglycerides (blood cholesterol; 1.0 g daily): -16%
- % Change After 8 Days, HDL (blood cholesterol; 1.0 g daily): 6%
- % Change After 8 Days, Glucose (blood cholesterol; 1.0 g daily): 2%
- % Change After 8 Days, Cholesterol (blood cholesterol; 2 g daily): -2%
- % Change After 8 Days, LDL (blood cholesterol; 2 g daily): -3%
- % Change After 8 Days, Triglycerides (blood cholesterol; 2 g daily): -8%
- % Change After 8 Days, HDL (blood cholesterol; 2 g daily): 1%
- % Change After 8 Days, Glucose (blood cholesterol; 2 g daily): -5%
- % Change After 8 Days, Cholesterol (blood cholesterol; 4 g daily): -4%
- % Change After 8 Days, LDL (blood cholesterol; 4 g daily): -6%
- % Change After 8 Days, Triglycerides (blood cholesterol; 4 g daily): 36%
- % Change After 8 Days, HDL (blood cholesterol; 4 g daily): 0%
- % Change After 8 Days, Glucose (blood cholesterol; 4 g daily): -4%

SMILES: CC(C)CC(=O)C(=O)O [KIC, ketoisocaproic acid, reference compound]
- Aorta Streaking (aorta): 1.48
- effect relative to any parameter ([3]; 0.05% KIC in diet, aorta streaking, plasma cholesterol, triglycerides): No effect
- Plasma Triglycerides ([3]; dietary .05%, control 107, ns): 106 mg %
- Plasma Cholesterol ([3]; dietary .05%, control 135, HMB p .05, KIC ns): 139 mg %
